Assay results reported in patent publication US12065442B2, “Tropomyosin receptor kinase (TRK) degradation compounds and methods of use” (Cullgen (Shanghai), Inc., priority 2018, dated 2024).

test system: KM12 cells; assay: Cell viability assay (CellTiter-Glo) in KM12 cells; format: cell-based; settings: Homo sapiens, 72 h; Table 2; KM12 cell viability, CellTiter-Glo, 3 days; read-out: IC50

Compound	IC50 [nM]
Cc1ncsc1-c1ccc(CNC(=O)[C@@H]2C[C@@H](O)CN2C(=O)[C@@H](NC(=O)CCOCCC(=O)N2CCN(c3cccc(-c4cnc5ccc(N6CCC[C@@H]6c6cccc(F)c6)nn45)n3)CC2)C(C)(C)C)cc1 [CPD-007, (2S,4R)-1-((S)-2-(3-(3-(4-(6-(6-((R)-2-(3-Fluorophenyl)pyrrolidin-1-yl)imidazo[1,2-b]pyridazin-3-yl)pyridin-2-yl)piperazin-1-yl)-3-oxopropoxy)propanamido)-3,3-dimethylbutanoyl)-4-hydroxy-N-(4-(4-methylthiazol-5-yl)benzyl)pyrrolidine-2-carboxamide]	> 1000
Cc1ncsc1-c1ccc(CNC(=O)[C@@H]2C[C@@H](O)CN2C(=O)[C@@H](NC(=O)CCC(=O)N2CCN(c3cccc(-c4cnc5ccc(N6CCC[C@@H]6c6cccc(F)c6)nn45)n3)CC2)C(C)(C)C)cc1 [CPD-006, (2S,4R)-1-((S)-2-(4-(4-(6-(6-((R)-2-(3-Fluorophenyl)pyrrolidin-1-yl)imidazo[1,2-b]pyridazin-3-yl)pyridin-2-yl)piperazin-1-yl)-4-oxobutanamido)-3,3-dimethylbutanoyl)-4-hydroxy-N-(4-(4-methylthiazol-5-yl)benzyl)pyrrolidine-2-carboxamide]	500
Cc1ncsc1-c1ccc(CNC(=O)[C@@H]2C[C@@H](O)CN2C(=O)[C@@H](NC(=O)CCOCCOCCC(=O)N2CCN(c3cccc(-c4cnc5ccc(N6CCC[C@@H]6c6cccc(F)c6)nn45)n3)CC2)C(C)(C)C)cc1 [CPD-020, (2S,4R)-1-((S)-2-(3-(2-(3-(4-(6-(6-((R)-2-(3-Fluorophenyl)pyrrolidin-1-yl)imidazo[1,2-b]pyridazin-3-yl)pyridin-2-yl)piperazin-1-yl)-3-oxopropoxy)ethoxy)propanamido)-3,3-dimethylbutanoyl)-4-hydroxy-N-(4-(4-methylthiazol-5-yl)benzyl)pyrrolidine-2-carboxamide]	200
Cc1ncsc1-c1ccc(CNC(=O)[C@@H]2C[C@@H](O)CN2C(=O)[C@@H](NC(=O)CCOCCOCCOCCC(=O)N2CCN(c3cccc(-c4cnc5ccc(N6CCC[C@@H]6c6cccc(F)c6)nn45)n3)CC2)C(C)(C)C)cc1 [CPD-016, (2S,4R)-1-((S)-2-(tert-butyl)-16-(4-(6-(6-((R)-2-(3-Fluorophenyl)pyrrolidin-1-yl)imidazo[1,2-b]pyridazin-3-yl)pyridin-2-yl)piperazin-1-yl)-4,16-dioxo-7,10,13-trioxa-3-azahexadecanoyl)-4-hydroxy-N-(4-(4-methylthiazol-5-yl)benzyl)pyrrolidine-2-carboxamide]	150
O=C(CN1CCN(c2ccc(C(=O)Nc3n[nH]c4ccc(Cc5cc(F)cc(F)c5)cc34)c(NC3CCOCC3)c2)CC1)NCCNc1cccc2c1C(=O)N(C1CCC(=O)NC1=O)C2=O (centres unmarked) [CPD-062, N-(5-(3,5-difluorobenzyl)-1H-indazol-3-yl)-4-(4-(2-((2-((2-(2,6-dioxopiperidin-3-yl)-1,3-dioxoisoindolin-4-yl)amino)ethyl)amino)-2-oxoethyl)piperazin-1-yl)-2-((tetrahydro-2H-pyran-4-yl)amino)benzamide]	29

same assay, conditions: Homo sapiens, 72 h; Table 3; KM12 cell viability, CellTiter-Glo, 3 days; read-out: IC50

Compound	IC50 [nM]
O=C(CN1CCN(c2ccc(C(=O)Nc3n[nH]c4ccc(Cc5cc(F)cc(F)c5)cc34)c(NC3CCOCC3)c2)CC1)NCCOCCOCCNc1ccc2c(c1)C(=O)N(C1CCC(=O)NC1=O)C2=O (centres unmarked) [TR-162, N-(5-(3,5-Difluorobenzyl)-1H-indazol-3-yl)-4-(4-(2-((2-(2-(2-((2-(2,6-dioxopiperidin-3-yl)-1,3-dioxoisoindolin-5-yl)amino)ethoxy)ethoxy)ethyl)amino)-2-oxoethyl)piperazin-1-yl)-2-((tetrahydro-2H-pyran-4-yl)amino)benzamide]	4.1
O=C(CN1CCN(c2ccc(C(=O)Nc3n[nH]c4ccc(Cc5cc(F)cc(F)c5)cc34)c(NC3CCOCC3)c2)CC1)NCCCCCCCCNc1cccc2c1C(=O)N(C1CCC(=O)NC1=O)C2=O (centres unmarked) [TR-148, N-(5-(3,5-Difluorobenzyl)-1H-indazol-3-yl)-4-(4-(2-((8-((2-(2,6-dioxopiperidin-3-yl)-1,3-dioxoisoindolin-4-yl)amino)octyl)amino)-2-oxoethyl)piperazin-1-yl)-2-((tetrahydro-2H-pyran-4-yl)amino)benzamide]	23.2
O=C1CCC(N2C(=O)c3ccc(NCC(=O)N4CCN(c5ccc(C(=O)Nc6n[nH]c7ccc(Cc8cc(F)cc(F)c8)cc67)c(NC6CCOCC6)c5)CC4)cc3C2=O)C(=O)N1 (centres unmarked) [TR-144, N-(5-(3,5-Difluorobenzyl)-1H-indazol-3-yl)-4-(4-((2-(2,6-dioxopiperidin-3-yl)-1,3-dioxoisoindolin-5-yl)glycyl)piperazin-1-yl)-2-((tetrahydro-2H-pyran-4-yl)amino)benzamide]	2.2
O=C(CN1CCN(c2ccc(C(=O)Nc3n[nH]c4ccc(Cc5cc(F)cc(F)c5)cc34)c(NC3CCOCC3)c2)CC1)NCCCNc1cccc2c1C(=O)N(C1CCC(=O)NC1=O)C2=O (centres unmarked) [TR-152, N-(5-(3,5-Difluorobenzyl)-1H-indazol-3-yl)-4-(4-(2-((3-((2-(2,6-dioxopiperidin-3-yl)-1,3-dioxoisoindolin-4-yl)amino)propyl)amino)-2-oxoethyl)piperazin-1-yl)-2-((tetrahydro-2H-pyran-4-yl)amino)benzamide]	3.1
O=C1CCC(N2C(=O)c3ccc(NCCCCCC(=O)N4CCN(c5cccc(-c6cnc7ccc(N8CCC[C@@H]8c8cccc(F)c8)nn67)n5)CC4)cc3C2=O)C(=O)N1 (stereo partly drawn) [TR-122, 2-(2,6-Dioxopiperidin-3-yl)-5-((6-(4-(6-(6-((R)-2-(3-fluorophenyl)pyrrolidin-1-yl)imidazo[1,2-b]pyridazin-3-yl)pyridin-2-yl)piperazin-1-yl)-6-oxohexyl)amino)isoindoline-1,3-dione]	2.7
O=C1CCC(N2Cc3cc(NCC(=O)N4CCN(c5cccc(-c6cnc7ccc(N8CCC[C@@H]8c8cccc(F)c8)nn67)n5)CC4)ccc3C2=O)C(=O)N1 (stereo partly drawn) [TR-190, 3-(5-((2-(4-(6-(6-((R)-2-(3-fluorophenyl)pyrrolidin-1-yl)imidazo[1,2-b]pyridazin-3-yl)pyridin-2-yl)piperazin-1-yl)-2-oxoethyl)amino)-1-oxoisoindolin-2-yl)piperidine-2,6-dione]	3.6
O=C1CCC(N2Cc3cc(NCCN4CCN(c5cccc(-c6cnc7ccc(N8CCC[C@@H]8c8cccc(F)c8)nn67)n5)CC4)ccc3C2=O)C(=O)N1 (stereo partly drawn) [TR-191, 3-(5-((2-(4-(6-(6-((R)-2-(3-fluorophenyl)pyrrolidin-1-yl)imidazo[1,2-b]pyridazin-3-yl)pyridin-2-yl)piperazin-1-yl)ethyl)amino)-1-oxoisoindolin-2-yl)piperidine-2,6-dione]	5.4

same assay, conditions: Homo sapiens, 72 h; Table 4; KM12 cell viability, CellTiter-Glo, 3 days; read-out: IC50

Compound	IC50 [nM]
O=C1CCC(n2c(=O)n(CCN3CCN(c4cccc(-c5cnc6ccc(N7CCC[C@@H]7c7cccc(F)c7)nn56)n4)CC3)c3ccccc32)C(=O)N1 (stereo partly drawn) [TR-227, 3-(3-(2-(4-(6-(6-((R)-2-(3-Fluorophenyl)pyrrolidin-1-yl)imidazo[1,2-b]pyridazin-3-yl)pyridin-2-yl)piperazin-1-yl)ethyl)-2-oxo-2,3-dihydro-1H-benzo[d]imidazol-1-yl)piperidine-2,6-dione]	23.6
Cn1c(=O)n(C2CCC(=O)NC2=O)c2cccc(NCCCN3CCN(c4cccc(-c5cnc6ccc(N7CCC[C@@H]7c7cccc(F)c7)nn56)n4)CC3)c21 (stereo partly drawn) [TR-217, 3-[4-[3-[4-[6-[6-[(2R)-2-(3-Fluorophenyl)pyrrolidin-1-yl]imidazo[1,2-b]pyridazin-3-yl]-2-pyridyl]piperazin-1-yl]propylamino]-3-methyl-2-oxo-benzimidazol-1-yl]piperidine-2,6-dione]	4
